{
  "source": "patent US8822541B2",
  "about": "“Use of targeted nitroxide agents in mitigating or treating radiation injury” (University of Pittsburgh—Of the Commonwealth System of …, priority 2008, dated 2014)",
  "key": {"[1]": {"test_system": "32D cl 3 mouse hematopoietic progenitor cell line", "assay": "Irradiation survival curves of 32D cl 3 cells with JP4-039 (Example 10)", "assay_type": "cell-based", "conditions": "10 μM, control 1.29", "protocol": "Irradiation survival curves were performed on cells from the 32D cl 3 mouse hematopoietic progenitor cell line, incubated in 10 μM JP4-039 for 1 hour before irradiation, or plated in methycellulose containing 10 μM JP4-030 after irradiation. Cells were irradiated from 0 to 8 Gy, plated in 0.8% methycellulose containing media, and incubated for 7 days at 37° C. Colonies of greater than 50 cells were counted and data analyzed by linear quadratic and single-hit, multi-target models."}, "[2]": {"test_system": "KM101 human marrow stromal cells", "assay": "Irradiation survival of KM101 marrow stromal cells", "assay_type": "cell-based", "conditions": "10 μM; for n (shoulder): control 1.1", "protocol": "KM101 cells were incubated in media alone or in JP4-039 (10 μM) for one hour before irradiation or 24 hours after irradiation. The cells were irradiated to doses ranging from 0 to 6 Gy and plated in 4 well plates. Seven days later the cells were stained with crystal violet and colonies of greater than 50 cells counted. Cells incubated in JP4-039 either before or after irradiation were more radioresistant as shown by an increased shoulder of n=2.3±0.2 or 2.2±0.2, respectively compared to n of 1.1±0.1 for the KM101 cells (p=0.0309 or 0.0386, respectively)."}, "[3]": {"test_system": "32D cl 3 cells", "assay": "EPR-based analysis of nitroxide distribution and partitioning in subcellular fractions", "assay_type": "cell-based, mouse", "conditions": "10 μM, 1 h", "protocol": "To determine nitroxide partitioning and distribution in subcellular compartments, electron paramagnetic resonance (EPR) was utilized. 32D cl 3 cells were incubated for 24 h under pelleted or flask growth conditions. After incubation, 150×10^6 cells were resuspended at a concentration of 10×10^6 cells/mL and were treated with 10 μM JP4-039 or 10 μM TEMPO for 1 h (Wipf P, et al., Mitochondrial targeting of selective electron scavengers: synthesis and biological analysis of hemigramicidin-TEMPO conjugates. J Am Chem. Soc. 127: 12460-12461, 2005).\nSubcellular compartments were isolated by differential centrifugation. Cells were centrifuged at 1500 RPM for 10 min and the supernatant (media) was removed. The remaining whole cell pellet was washed with cold PBS, resuspended in 0.3 mL of hypotonic buffer solution, and incubated on ice for 45 min. Cells were then lysed by three rapid freeze-thaw cycles in liquid nitrogen for 30 sec and water at 25° C. for 3 min. Lysed cells were centrifuged at 3000×g for 5 min to isolate nucleus and cellular debris. Supernatant was centrifuged at 12000×g for 45 min to isolate mitochondria from cytoplasm (Wipf P, et al., Mitochondrial targeting of selective electron scavengers: synthesis and biological analysis of hemigramicidin-TEMPO conjugates. J Am Chem. Soc. 127: 12460-12461, 2005).\nEach cellular fraction (media, whole cell pellet, nucleus/cellular debris, mitochondria, and cytoplasm) was mixed with DMSO (1:1 vol/vol) and 2 mM of potassium ferricyanide (K3Fe(CN)6) to convert […] to EPR-detectable radical forms (Behringer W, et al., Antioxidant Tempol enhances hypothermic cerebral preservation during prolonged cardiac arrest in dogs. J Cereb Blood Flow Metab. 22: 105-117, 2002). 70 μL of the homogenate was loaded into Teflon tubing (0.8 mm internal diameter) (Alpha Wire Corp., Elizabeth, N.J.) which was folded in half and placed into an open ESR quartz tube (inner diameter of 3.0 mm). EPR measurements were made in triplicate using a JEOL-RE1X EPR spectrometer (Jeol, Tokyo, Japan) under the following conditions: 334.7 mT center field, 5 mT sweep width, 0.079 mT field modulation, 20 mW microwave power, 0.1 sec time constant, and 2 min scan time at 22.5° C. Utilizing signal magnitude and isolated volumes, amount and concentration of JP4-039 or TEMPO were calculated for each sample."}},
  "note": "Values joined by “and” are separate entries in the source; they are usually repeats but may differ in a detail not shown here. Identical values can stand only once.",
  "data": [
    {"smiles": "CC(C)C[C@@H](/C=C/CC(=O)NC1CC(C)(C)N([O])C(C)(C)C1)NC(=O)OC(C)(C)C", "note": "[JP4-039, TEMPO-4-yl-(S,E)-5-(tert-butoxycarbonylamino)-7-methyloct-3-enamide]", "values": [
      {"measurement": "ñ (shoulder on the survival curve)", "setting": "[1]; drug added after irradiation", "result": "4.55±0.47"},
      {"measurement": "ñ (shoulder on the survival curve)", "setting": "[1]; drug added before irradiation", "result": "5.25±0.84"},
      {"measurement": "n (shoulder)", "setting": "[2]; 24 hours after irradiation", "result": "2.2±0.2"},
      {"measurement": "Do", "setting": "[2]; before or after irradiation", "result": "no significant change"},
      {"measurement": "n (shoulder)", "setting": "[2]; one hour before irradiation", "result": "2.3±0.2"},
      {"measurement": "cellular EPR signal detected in mitochondria", "setting": "[3]; exponential growth", "result": "5.0±0.3", "unit": "%"},
      {"measurement": "cellular EPR signal in nucleus and/or cellular debris", "setting": "[3]; exponential growth", "result": "37.2±0.3", "unit": "%"},
      {"measurement": "cellular EPR signal in the cytoplasm", "setting": "[3]; exponential growth", "result": "19.4±1.6", "unit": "%"},
      {"measurement": "concentration in the nucleus and cellular debris", "setting": "[3]; exponential growth", "result": "10.1 ± 0.1", "unit": "µM"},
      {"measurement": "concentration in the whole cell pellet", "setting": "[3]; exponential growth", "result": "12.6 ± 0.2", "unit": "µM"},
      {"measurement": "mitochondrial concentration", "setting": "[3]; exponential growth", "result": "8.5 ± 0.5", "unit": "µM"},
      {"measurement": "cellular EPR signal in nucleus and/or cellular debris", "setting": "[3]; pelleted cells", "result": "33.2±3.8", "unit": "%"},
      {"measurement": "cellular EPR signal in the cytoplasm", "setting": "[3]; pelleted cells", "result": "29.5±0.7", "unit": "%"},
      {"measurement": "cellular EPR signal localized to the mitochondria", "setting": "[3]; pelleted cells", "result": "3.9±0.2", "unit": "%"},
      {"measurement": "mitochondrial concentration", "setting": "[3]; pelleted cells", "result": "10.90 ± 0.48 µM and 10.9 µM"}
    ]}
  ]
}
